Measured values taken from ChEMBL document CHEMBL5506059, “Cyanomethylquinolones as a New Class of Potential Multitargeting Broad-Spectrum Antibacterial Agents” (J Med Chem, 2024).
In brackets after ≈: the same amount, converted by molar mass. Activity calls are given as the source filed them. The rule behind the calls is not given here.

What was measured:
Pseudomonas aeruginosa [1] = assay: Resistance development in ciprofloxacin-treated Pseudomonas aeruginosa assessed as increase in MIC measured after 15th generation; type: functional, organism-based
Staphylococcus aureus [2] = assay: Resistance development in ciprofloxacin-treated methicillin resistant Staphylococcus aureus assessed as increase in MIC measured after 15th generation; type: functional, organism-based
Staphylococcus aureus [3] = assay: Antibacterial activity against Staphylococcus aureus ATCC 29213 assessed as inhibition of bacterial growth incubated for 24 hrs; type: functional
Pseudomonas aeruginosa [4] = assay: Induction of intracellular ROS generation in Pseudomonas aeruginosa assessed as increase in fluorescence intensity at 2 ug/ml incubated for 6 hrs in presence of N-acetyl-L-cysteine by DCFH-DA dye based fluorescence analysis; type: functional, organism-based; details: dose 2.0 µg/ml
Pseudomonas aeruginosa [5] = assay: Resistance development in ciprofloxacin-treated Pseudomonas aeruginosa ATCC 27853 assessed as increase in MIC measured after 15th generation; type: functional, organism-based
Staphylococcus aureus [6] = assay: Bactericidal activity against methicillin-resistant Staphylococcus aureus assessed as increase in fluorescence intensity at 2 ug/ml incubated for 6 hrs by PI staining based fluorescence analysis; type: functional, organism-based; details: dose 2.0 µg/ml
Enterococcus faecium = assay: Antibacterial activity against Enterococcus faecium ATCC 19434 assessed as inhibition of bacterial growth incubated for 24 hrs; type: functional
[7] = test system: Staphylococcus epidermidis; assay: Antibacterial activity against Staphylococcus epidermidis ATCC 12228 assessed as inhibition of bacterial growth incubated for 24 hrs; type: functional
Cell membrane [8] = assay: Induction of cell membrane permeability in methicillin-resistant Staphylococcus aureus assessed as increase in fluorescence intensity at 1 ug/ml incubated for 6 hrs by PI staining based fluorescence analysis; type: cell membranes; details: dose 1.0 µg/ml
Pseudomonas aeruginosa [9] = assay: Antibiofilm activity in Pseudomonas aeruginosa assessed as biofilm eradication at 1 to 2 ug/ml measured after 24 hrs by crystal violet staining based analysis; type: functional, organism-based; details: dose 1-2 µg/ml
Staphylococcus aureus [10] = assay: Antibiofilm activity in methicillin resistant Staphylococcus aureus assessed as biofilm eradication at 1 to 2 ug/ml measured after 24 hrs by crystal violet staining based analysis; type: functional, organism-based; details: dose 1-2 µg/ml
Staphylococcus aureus [11] = assay: Antibacterial activity against Staphylococcus aureus ATCC 25923 assessed as inhibition of bacterial growth incubated for 24 hrs; type: functional
Pseudomonas aeruginosa [12] = assay: Bactericidal activity against Pseudomonas aeruginosa assessed as increase in fluorescence intensity at 2 ug/ml incubated for 6 hrs by PI staining based fluorescence analysis; type: functional, organism-based; details: dose 2.0 µg/ml
Pseudomonas aeruginosa [13] = assay: Induction of intracellular ROS generation in Pseudomonas aeruginosa assessed as increase in fluorescence intensity at 2 ug/ml incubated for 6 hrs by DCFH-DA dye based fluorescence analysis; type: functional, organism-based; details: dose 2.0 µg/ml
Streptococcus pneumoniae = assay: Antibacterial activity against Streptococcus pneumoniae ATCC 6305 assessed as inhibition of bacterial growth incubated for 24 hrs; type: functional
Staphylococcus aureus [14] = assay: Induction of morphological changes in methicillin resistant Staphylococcus aureus at 2 ug/ml incubated for 3 hrs by SEM analysis; type: functional, organism-based; details: dose 2.0 µg/ml
Staphylococcus aureus [15] = assay: Resistance development in ciprofloxacin-treated Staphylococcus aureus ATCC 6538 assessed as increase in MIC measured after 15th generation; type: functional, organism-based
Cell membrane [16] = assay: Induction of cell membrane depolarization in methicillin-resistant Staphylococcus aureus assessed as increase in fluorescence intensity at 1 ug/ml measured for 30 mins by DiSC35 dye based fluorescence analysis; type: cell membranes; details: dose 1.0 µg/ml
Staphylococcus aureus [17] = assay: Antibacterial activity against Staphylococcus aureus ATCC 6538 assessed as inhibition of bacterial growth incubated for 24 hrs; type: functional
Cell membrane [18] = assay: Induction of cell membrane permeability in Pseudomonas aeruginosa assessed as increase in fluorescence intensity at 1 ug/ml incubated for 6 hrs by PI staining based fluorescence analysis; type: cell membranes; details: dose 1.0 µg/ml
Pseudomonas aeruginosa [19] = assay: Induction of morphological changes in Pseudomonas aeruginosa at 2 ug/ml incubated for 3 hrs by SEM analysis; type: functional, organism-based; details: dose 2.0 µg/ml
Streptococcus pyogenes = assay: Antibacterial activity against Streptococcus pyogenes ATCC 19615 assessed as inhibition of bacterial growth incubated for 24 hrs; type: functional
Cell membrane [20] = assay: Induction of cell membrane depolarization in Pseudomonas aeruginosa assessed as increase in fluorescence intensity at 1 ug/ml measured for 30 mins by DiSC35 dye based fluorescence analysis; type: cell membranes; details: dose 1.0 µg/ml
Escherichia coli [21] = assay: Potency index, ratio of norfloxacin MIC to test compound MIC for antibacterial activity against Escherichia coli ATCC 25922 assessed as inhibition of bacterial growth incubated for 24 hrs; type: functional
Pseudomonas aeruginosa [22] = assay: Antibacterial activity against Pseudomonas aeruginosa clinical isolate assessed as inhibition of bacterial growth incubated for 24 hrs; type: functional
Acinetobacter baumannii = assay: Antibacterial activity against Acinetobacter baumannii clinical isolate assessed as inhibition of bacterial growth incubated for 24 hrs; type: functional
Staphylococcus aureus [23] = assay: Antibacterial activity against Staphylococcus aureus clinical isolate assessed as inhibition of bacterial growth incubated for 24 hrs; type: functional
Staphylococcus aureus [24] = assay: Antibacterial activity against methicillin resistant Staphylococcus aureus clinical isolate assessed as inhibition of bacterial growth incubated for 24 hrs; type: functional
Escherichia coli [25] = assay: Antibacterial activity against Escherichia coli clinical isolate assessed as inhibition of bacterial growth incubated for 24 hrs; type: functional
Enterococcus faecalis = assay: Antibacterial activity against Enterococcus faecalis clinical isolate assessed as inhibition of bacterial growth incubated for 24 hrs; type: functional
Pseudomonas aeruginosa [26] = assay: Antibacterial activity against Pseudomonas aeruginosa ATCC 27853 assessed as inhibition of bacterial growth incubated for 24 hrs; type: functional
Escherichia coli [27] = assay: Potency index, ratio of ciprofloxacin MIC to test compound MIC for antibacterial activity against Escherichia coli ATCC 25922 assessed as inhibition of bacterial growth incubated for 24 hrs; type: functional
Klebsiella pneumoniae = assay: Antibacterial activity against Klebsiella pneumoniae clinical isolate assessed as inhibition of bacterial growth incubated for 24 hrs; type: functional
Escherichia coli [28] = assay: Antibacterial activity against Escherichia coli ATCC 25922 assessed as inhibition of bacterial growth incubated for 24 hrs; type: functional

For `O=C(O)c1cn(C2CC2)c2cc(N3CCNCC3)c(F)cc2c1=O` [CIPROFLOXACIN], the Activity (Pseudomonas aeruginosa [1]) was “Active”, the Activity (Staphylococcus aureus [2]) was “Active” and the MIC (Staphylococcus aureus [3]) was 0.5 µg/mL (≈ 1.51 µM). The Activity (Pseudomonas aeruginosa [4]) was “inactive”, the Activity (Pseudomonas aeruginosa [5]) was “Active” and the Activity (Staphylococcus aureus [6]) was “Active”. For the same compound, the MIC (Enterococcus faecium) was 2 µg/mL (≈ 6.04 µM), the MIC [7] was 0.125 µg/mL (≈ 0.377 µM) and the Activity (Cell membrane [8]) was “inactive”. The Activity (Pseudomonas aeruginosa [9]) was “inactive”, the Activity (Staphylococcus aureus [10]) was “inactive” and the MIC (Staphylococcus aureus [11]) was 1 µg/mL (≈ 3.02 µM). For the same compound, the Activity (Pseudomonas aeruginosa [12]) was “Active”, the Activity (Pseudomonas aeruginosa [13]) was “Active” and the MIC (Streptococcus pneumoniae) was 0.125 µg/mL (≈ 0.377 µM). For the same compound, the Activity (Staphylococcus aureus [14]) was “Active”, the Activity (Staphylococcus aureus [15]) was “Active” and the Activity (Cell membrane [16]) was “inactive”. The MIC (Staphylococcus aureus [17]) was 0.5 µg/mL (≈ 1.51 µM), the Activity (Cell membrane [18]) was “inactive” and the Activity (Pseudomonas aeruginosa [19]) was “Active”. For the same compound, the MIC (Streptococcus pyogenes) was 16 µg/mL (≈ 48.3 µM) and the Activity (Cell membrane [20]) was “inactive”.

`C[C@H]1COc2c(CC(=O)O)c(F)cc3c(=O)c(C(=O)O)cn1c23` gave a Ratio (Escherichia coli [21]) of 16, an MIC (Pseudomonas aeruginosa [22]) of 0.5 µg/mL (≈ 1.56 µM) and an MIC (Acinetobacter baumannii) of 1 µg/mL (≈ 3.11 µM). For the same compound, the MIC (Staphylococcus aureus [23]) was 16 µg/mL (≈ 49.8 µM), the MIC (Staphylococcus aureus [3]) was 1 µg/mL (≈ 3.11 µM) and the MIC (Staphylococcus aureus [24]) was 1 µg/mL (≈ 3.11 µM). It also gave an MIC (Escherichia coli [25]) of 0.5 µg/mL (≈ 1.56 µM), an MIC (Enterococcus faecalis) of 1 µg/mL (≈ 3.11 µM) and an MIC (Staphylococcus aureus [11]) of 32 µg/mL (≈ 99.6 µM). It also gave an MIC (Pseudomonas aeruginosa [26]) of 0.5 µg/mL (≈ 1.56 µM), a Ratio (Escherichia coli [27]) of 2 and an MIC (Klebsiella pneumoniae) of 8 µg/mL (≈ 24.9 µM). For the same compound, the MIC (Escherichia coli [28]) was 0.25 µg/mL (≈ 0.778 µM).
